Experimental data published in patent US20180087079A1, “METHODS OF USING CELL-CYCLE INHIBITORS TO MODULATE ONE OR MORE PROPERTIES OF A CELL CULTURE” (AMGEN INC., priority 2013, published 2018).

Test system: transfected CHO cells expressing recombinant human monoclonal antibody (cell line 1)
Experiment: 24-deep well culture, cell line 1: VCD, viability, titer, qP
Assay type: cell-based, Chinese hamster
Conditions: for Titer / VCD / Viability / qP: Cell Line 1
Protocol: Transfected CHO cells expressing a recombinant human monoclonal antibody (mAb) are cultured in 24-deep well plates with seeding density at 1×10^7/mL for five days. At certain time periods, samples of the cultures are taken and evaluated for viable cell density (VCD; expressed in 10^6 cells/mL); percent viability (as determined by trypan blue exclusion); titer of recombinant protein (expressed in grams of protein per liter of culture, or g/L, as determined by Protein A affinity HPLC); qP, or specific productivity (expressed in picograms of recombinant protein per cell per day, or pg/c/d), the presence or absence of high molecular weight substances (usually an indicator of protein aggregation; expressed as % of the total protein); and the relative percentage of Mannose 5, a major intermediate glyco-form that attaches to N297 of the mAb. N-linked glycosylation has an impact on the tertiary structure of the antibody and may affect Fc mediated antibody effector functions. The majority of the human Fc glycans are complex biantennary structures with galactose as the prevalent terminal sugar. Immature glyco-forms, such as high-mannose glycol-forms (Man5-9), are of concern due to potential higher plasma clearance rate (as compared to the clearance rate of complex glycan linked mAbs).
Compounds are further evaluated essentially as described in Example 2 herein. Briefly, transfected CHO cells expressing recombinant human monoclonal antibody (mAb; two different cell lines expressing two different mAb, referred to as cell line 1 and cell line 2) are cultured in 24-deep well plates in the presence or absence of the compounds. At specified time points, samples of the cultures are taken and evaluated for viable cell density (VCD; expressed in 10^6 cells/mL); percent viability (as determined by any method known in the art); titer of recombinant protein (expressed in grams of protein per liter of culture, or g/L, as determined by Protein A affinity HPLC); qP, or specific productivity (expressed in picograms of recombinant protein per cell per day, or pg/c/d). Additional parameters measure include the presence or absence of high molecular weight substances (usually an indicator of protein aggregation; expressed as % of the total protein); and the relative percentage of Mannose 5. For comparison purposes, Compounds A and B, which had been previously tested, were tested again.

Compound: CC1(C)CN(c2ccc(Nc3ncc4c5ccncc5n(-c5ccc(F)cc5F)c4n3)nc2)CCN1 [Compound J, 9-(2,4-difluorophenyl)-N-(5-(3,3-dimethylpiperazin-1-yl)pyridin-2-yl)-9H-pyrido[4′,3′:4,5]pyrrolo[2,3-d]pyrimidin-2-amine]
- Titer (0.625 microM, D 1): 0.45 g/L
- VCD (0.625 microM, D 1): 11.40 e6/mL
- Viability (0.625 microM, D 1): 94.94%
- qP (0.625 microM, D 1): 39.77 pg/c/d
- Titer (0.625 microM, D 2): 0.68 g/L
- VCD (0.625 microM, D 2): 14.02 e6/mL
- Viability (0.625 microM, D 2): 91.87%
- qP (0.625 microM, D 2): 48.50 pg/c/d
- Titer (0.625 microM, D 3): 0.88 g/L
- VCD (0.625 microM, D 3): 16.48 e6/mL
- Viability (0.625 microM, D 3): 90.31%
- qP (0.625 microM, D 3): 53.61 pg/c/d
- Titer (0.625 microM, D 4): 0.99 g/L
- VCD (0.625 microM, D 4): 19.37 e6/mL
- Viability (0.625 microM, D 4): 89.98%
- qP (0.625 microM, D 4): 51.10 pg/c/d
- Titer (1.25 microM, D 1): 0.44 g/L
- VCD (1.25 microM, D 1): 11.54 e6/mL
- Viability (1.25 microM, D 1): 94.24%
- qP (1.25 microM, D 1): 38.41 pg/c/d
- Titer (1.25 microM, D 2): 0.64 g/L
- VCD (1.25 microM, D 2): 11.25 e6/mL
- Viability (1.25 microM, D 2): 87.53%
- qP (1.25 microM, D 2): 57.19 pg/c/d
- Titer (1.25 microM, D 3): 0.86 g/L
- VCD (1.25 microM, D 3): 14.06 e6/mL
- Viability (1.25 microM, D 3): 84.29%
- qP (1.25 microM, D 3): 61.40 pg/c/d
- Titer (1.25 microM, D 4): 1.08 g/L
- VCD (1.25 microM, D 4): 17.54 e6/mL
- Viability (1.25 microM, D 4): 84.81%
- qP (1.25 microM, D 4): 61.77 pg/c/d

Compound: Fc1ccc(-n2c3cnccc3c3cnc(Nc4ccc(N5CCNCC5)cn4)nc32)c(F)c1 [Compound I, 9-(2,4-difluorophenyl)-N-(5-(piperazin-1-yl)pyridin-2-yl)-9H-pyrido[4′,3′:4,5]pyrrolo[2,3-d]pyrimidin-2-amine]
- Titer (0.625 microM, D 1): 0.46 g/L
- VCD (0.625 microM, D 1): 11.17 e6/mL
- Viability (0.625 microM, D 1): 95.26%
- qP (0.625 microM, D 1): 41.50 pg/c/d
- Titer (0.625 microM, D 2): 0.66 g/L
- VCD (0.625 microM, D 2): 11.98 e6/mL
- Viability (0.625 microM, D 2): 89.90%
- qP (0.625 microM, D 2): 55.10 pg/c/d
- Titer (0.625 microM, D 3): 0.89 g/L
- VCD (0.625 microM, D 3): 12.81 e6/mL
- Viability (0.625 microM, D 3): 85.53%
- qP (0.625 microM, D 3): 69.73 pg/c/d
- Titer (0.625 microM, D 4): 1.07 g/L
- VCD (0.625 microM, D 4): 16.91 e6/mL
- Viability (0.625 microM, D 4): 85.47%
- qP (0.625 microM, D 4): 63.09 pg/c/d
- Titer (1.25 microM, D 1): 0.46 g/L
- VCD (1.25 microM, D 1): 10.89 e6/mL
- Viability (1.25 microM, D 1): 94.78%
- qP (1.25 microM, D 1): 42.55 pg/c/d
- Titer (1.25 microM, D 2): 0.66 g/L
- VCD (1.25 microM, D 2): 11.16 e6/mL
- Viability (1.25 microM, D 2): 88.73%
- qP (1.25 microM, D 2): 58.82 pg/c/d
- Titer (1.25 microM, D 3): 0.89 g/L
- VCD (1.25 microM, D 3): 12.25 e6/mL
- Viability (1.25 microM, D 3): 85.80%
- qP (1.25 microM, D 3): 72.68 pg/c/d
- Titer (1.25 microM, D 4): 1.06 g/L
- VCD (1.25 microM, D 4): 15.33 e6/mL
- Viability (1.25 microM, D 4): 84.19%
- qP (1.25 microM, D 4): 69.35 pg/c/d

Compound: OC1CCN(c2ccc(Nc3ncc4c5ccncc5n(C5CCCC5)c4n3)nn2)C1 (stereo not shown) [Compound G, 1-(6-((9-cyclopentyl-9H-pyrido[4′,3′:4,5]pyrrolo[2,3-d]pyrimidin-2-yl)amino)pyridazin-3-yl)pyrrolidin-3-ol]
- Titer (5 microM, D 1): 0.48 g/L
- VCD (5 microM, D 1): 11.74 e6/mL
- Viability (5 microM, D 1): 95.55%
- qP (5 microM, D 1): 40.59 pg/c/d
- Titer (5 microM, D 2): 0.66 g/L
- VCD (5 microM, D 2): 10.58 e6/mL
- Viability (5 microM, D 2): 88.10%
- qP (5 microM, D 2): 62.69 pg/c/d
- Titer (5 microM, D 3): 0.96 g/L
- VCD (5 microM, D 3): 11.02 e6/mL
- Viability (5 microM, D 3): 83.82%
- qP (5 microM, D 3): 86.81 pg/c/d
- Titer (5 microM, D 4): 0.98 g/L
- VCD (5 microM, D 4): 13.45 e6/mL
- Viability (5 microM, D 4): 82.62%
- qP (5 microM, D 4): 72.60 pg/c/d
- Titer (10 microM, D 1): 0.47 g/L
- VCD (10 microM, D 1): 11.65 e6/mL
- Viability (10 microM, D 1): 95.31%
- qP (10 microM, D 1): 40.64 pg/c/d
- Titer (10 microM, D 2): 0.80 g/L
- VCD (10 microM, D 2): 9.95 e6/mL
- Viability (10 microM, D 2): 85.90%
- qP (10 microM, D 2): 80.10 pg/c/d
- Titer (10 microM, D 3): 0.94 g/L
- VCD (10 microM, D 3): 10.48 e6/mL
- Viability (10 microM, D 3): 81.90%
- qP (10 microM, D 3): 89.39 pg/c/d
- Titer (10 microM, D 4): 1.08 g/L
- VCD (10 microM, D 4): 13.58 e6/mL
- Viability (10 microM, D 4): 79.61%
- qP (10 microM, D 4): 79.79 pg/c/d
- effect on viability (summary of Table 2): minimal effects on viability
- growth arrest (summary of Table 2): reasonably sustained growth arrest

Compound: CN(C)C1CCN(c2ccc(Nc3ncc4c(n3)C3(C=CC(C)(C)CC3)c3cnccc3-4)nn2)CC1 (stereo not shown) [Compound H, N-(6-(4-(dimethylamino)piperidin-1-yl)pyridazin-3-yl)-4,4-dimethylspiro[cyclohex[2]ene-1,9′-pyrido[4′,3′:3,4]cyclopenta[1,2-d]pyrimidin]-2′-amine]
- Titer (10 microM, D 1): 0.47 g/L
- VCD (10 microM, D 1): 11.48 e6/mL
- Viability (10 microM, D 1): 95.80%
- qP (10 microM, D 1): 41.24 pg/c/d
- Titer (10 microM, D 2): 0.69 g/L
- VCD (10 microM, D 2): 12.58 e6/mL
- Viability (10 microM, D 2): 89.83%
- qP (10 microM, D 2): 55.12 pg/c/d
- Titer (10 microM, D 3): 0.94 g/L
- VCD (10 microM, D 3): 13.36 e6/mL
- Viability (10 microM, D 3): 87.77%
- qP (10 microM, D 3): 70.60 pg/c/d
- Titer (10 microM, D 4): 0.92 g/L
- VCD (10 microM, D 4): 16.49 e6/mL
- Viability (10 microM, D 4): 86.93%
- qP (10 microM, D 4): 56.01 pg/c/d
- Titer (20 microM, D 1): 0.47 g/L
- VCD (20 microM, D 1): 10.69 e6/mL
- Viability (20 microM, D 1): 95.60%
- qP (20 microM, D 1): 44.27 pg/c/d
- Titer (20 microM, D 2): 0.68 g/L
- VCD (20 microM, D 2): 11.08 e6/mL
- Viability (20 microM, D 2): 87.70%
- qP (20 microM, D 2): 61.66 pg/c/d
- Titer (20 microM, D 3): 0.92 g/L
- VCD (20 microM, D 3): 10.91 e6/mL
- Viability (20 microM, D 3): 82.95%
- qP (20 microM, D 3): 83.98 pg/c/d
- Titer (20 microM, D 4): 0.97 g/L
- VCD (20 microM, D 4): 12.99 e6/mL
- Viability (20 microM, D 4): 81.36%
- qP (20 microM, D 4): 74.65 pg/c/d
